Results: patent US20260184693A1, “INHIBITORS OF SOLUTE CARRIER FAMILY 6A MEMBER 19 (SLC6A19) AND METHODS OF USE THEREOF” (Maze Therapeutics, Inc., priority 2022, published 2026)

Assays:
human SLC6A19 [1] = molecular target: T1, human SLC6A19 (Homo sapiens, UniProt Q695T7); experiment: Example B-1: L-[3H]leucine uptake, liquid scintillation, in CHO cells with doxycycline-inducible expression of human SLC6A19 and TMEM27; assay type: cell-based; details: read-out: SLC6A19_Radioligand Uptake Assay IC50
T1 construct: expressed in transfected cells
T1 sequence (Q695T7 1-634): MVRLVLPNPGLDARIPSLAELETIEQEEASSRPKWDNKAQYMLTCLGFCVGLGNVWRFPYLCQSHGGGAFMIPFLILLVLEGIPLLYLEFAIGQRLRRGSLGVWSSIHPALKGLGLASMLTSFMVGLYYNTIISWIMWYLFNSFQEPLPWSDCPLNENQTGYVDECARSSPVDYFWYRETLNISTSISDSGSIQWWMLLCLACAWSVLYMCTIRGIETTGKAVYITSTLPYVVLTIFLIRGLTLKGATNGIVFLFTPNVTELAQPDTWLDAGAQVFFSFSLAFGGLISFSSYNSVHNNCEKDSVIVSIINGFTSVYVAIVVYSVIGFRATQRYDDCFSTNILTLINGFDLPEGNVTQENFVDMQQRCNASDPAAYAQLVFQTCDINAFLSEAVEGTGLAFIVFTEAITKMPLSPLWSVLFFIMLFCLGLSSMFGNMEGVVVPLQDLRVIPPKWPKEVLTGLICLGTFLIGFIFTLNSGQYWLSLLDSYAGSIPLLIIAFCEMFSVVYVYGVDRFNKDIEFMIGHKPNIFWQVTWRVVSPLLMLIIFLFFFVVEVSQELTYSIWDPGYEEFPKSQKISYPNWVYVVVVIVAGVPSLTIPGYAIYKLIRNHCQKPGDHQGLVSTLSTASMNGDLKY
T1 sequence (Q9HBJ8 15-222 partner): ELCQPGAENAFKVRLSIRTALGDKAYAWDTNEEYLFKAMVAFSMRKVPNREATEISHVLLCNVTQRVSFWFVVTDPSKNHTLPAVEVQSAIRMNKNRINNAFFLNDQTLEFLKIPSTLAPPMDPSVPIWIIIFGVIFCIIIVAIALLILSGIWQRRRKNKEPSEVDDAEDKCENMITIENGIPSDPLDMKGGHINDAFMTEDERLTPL
Description: CHO cells with doxycycline-inducible expression of human SLC6A19 and TMEM27 were maintained in T150 cell culture treated flasks using cell culture media, which consisted of 1×DMEM/F12 (Gibco, 11330057), 10% Tet System-Approved FBS (Gibco, A4736401), 100 U/mL Penicillin-Streptomycin (Gibco, 15140122), 1×GlutaMAX™ Supplement (Gibco, 35050061), 1 mM Sodium Pyruvate (Gibco, 11360070), 1.1 mg/mL Sodium Bicarbonate (Gibco, 25080094), 5 μg/mL Blasticidin (InvivoGen, ant-bl-1), 150 μg/mL Hygromycin B Gold (InvivoGen, ant-hg-5), and 500 μg/mL G418 (Sigma-Aldrich, G8168-100 mL). In preparation for the assay, this media was aspirated and 5 mL of TryμLE™ Express Enzyme (Gibco, 12605010) was added to each flask to initiate cell dissociation. The flasks were then incubated (humidified, 37° C. with 5% CO2) for 2 minutes. After incubation, 10 mL of pre-warmed cell culture media was added to each flask. The cell suspension was collected and centrifuged for 5 minutes at 200xg.
The supernatant was aspirated and the pellet was resuspended in 5 mL pre-warmed cell culture media. The resuspended cells were counted using the Countess Cell Counting Chamber (Invitrogen) and the cell concentration of the suspension was readjusted to 1 million live cells/mL using pre-warmed cell culture media. 25 uL/well (25,000 cells/well) of readjusted cell suspension was dispensed into Poly-D-Lysine 384-well white/clear plates (Corning, 354660) using a MultiDrop Combi (Thermo Electron Corp). To induce expression of Human SLC6A19 and TMEM27, 25 uL/well of cell culture media containing 2 μg/mL doxycycline was added to the first 23 columns of each plate resulting in a final concentration of […] doxycycline. 25 μL/well of cell culture media was added to the last column of each plate, to act as negative control wells for Human SLC6A19 and TMEM27 expression. Assay plates were then incubated (humidified, 37° C. with 5% CO2) for 18 hours. After incubation, the media was aspirated and the wells were washed 4 times with pre-warmed HBSS (Sigma-Aldrich, H8264-1L) using an Apricot S-Pipette S2 (Apricot Designs), such that 5 uL/well HBSS was remaining at the end of each wash. […] At this step, the final in-well DMSO concentration in the assay plate is 0.5%. All compounds were plated in a duplicate 8-point dilution series that consisted of 3-fold dilutions. […] Afterwards, 15 uL/well of 3.2 mM hot:cold leucine solution (1:15000 ratio of L-[3,4,5-3H(N)] Leucine (Perkin Elmer, NET460001MC) to L-Leucine (Sigma-Aldrich, L8912-25G) diluted with HBSS (Sigma-Aldrich, H8264-1L)) was added using the Viaflo 384 (Integra), for a final concentration of 1.6 mM hot:cold leucine solution. The plates were then incubated (humidified, 37° C. with 5% CO2) for 20 minutes to conduct the uptake reaction. Immediately after the incubation, the plates were washed 4 times with HBSS (Sigma-Aldrich, H8264-1L) using the ELx405 Microplate Washer (Biotek) to terminate the uptake reaction. After the washes, 50 uL/well Ultima Gold Scintillation Cocktail (Perkin Elmer, 6013326) was added to each well using the Viaflo 384 (Integra). The plates were then incubated (humidified, 37° C. with 5% CO2) on a plate shaker at 200 rpm for 2 hours. After incubation, the plates were removed from the shaker and kept at room temperature for 15 minutes.
Liquid scintillation analysis was performed using the MicroBeta2 Microplate Counter (Perkin Elmer). Activity (%) was derived by normalizing the average of positive control compound treated wells to 0% and the average of DMSO (negative control) wells to 100%. Collaborative Drug Discovery software was used for graphing data.

human SLC6A19 [2] = molecular target: T1, human SLC6A19; experiment: Example B2: 13C6,15N-isoleucine uptake, RapidFire mass spectrometry, in CHO cells with doxycycline-inducible expression of human SLC6A19 and TMEM27; assay type: cell-based; details: read-out: SLC6A19_RapidFire Uptake Assay IC50
How it was run: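 Labelled isoleucine (13C6,15N; 2 mM added) was given 20 min at 37 °C, following a 20-min compound pre-treatment (10-point 2-fold series, duplicate). Cells were doxycycline-induced CHO co-expressing human SLC6A19 and TMEM27. Intracellular label was quantified by RapidFire-MS peak areas against a 13C-leucine standard.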

Row | Structure (SMILES) | IC50 (human SLC6A19 [1]) | IC50 (human SLC6A19 [2])
1 | Cc1nc(C(=O)N2CCC[C@@H](N(C)C(=O)NCc3cc4cc(Cl)ccc4[nH]3)C2)co1 [Compound 200, (R)-3-((5-chloro-1H-indol-2-yl)methyl)-1-methyl-1-(1-(2-methyloxazole-4-carbonyl)piperidin-3-yl)urea] | 350 nM | 512 nM
2 | CC(=O)N1CCC[C@@H](N(C)C(=O)NCCc2ccc(F)c(-c3cc4ccccc4[nH]3)c2)C1 [Compound 244, (R)-1-(1-acetylpiperidin-3-yl)-3-(4-fluoro-3-(1H-indol-2-yl)phenethyl)-1-methylurea] | > 10000 nM | 7080 nM
3 | CN(C(=O)NCc1cc2cc(Cl)ccc2[nH]1)[C@@H]1CCCN(C(=O)c2ccccc2O)C1 [Compound 196, (R)-3-((5-chloro-1H-indol-2-yl)methyl)-1-(1-(2-hydroxybenzoyl)piperidin-3-yl)-1-methylurea] | 640 nM | 518 nM
4 | CCn1ccc(C(=O)N2CCC[C@@H](N(C)C(=O)NCc3cc4cc(Cl)ccc4[nH]3)C2)n1 [Compound 240, (R)-3-((5-chloro-1H-indol-2-yl)methyl)-1-(1-(1-ethyl-1H-pyrazole-3-carbonyl)piperidin-3-yl)-1-methylurea] | 154 nM | 160 nM
5 | CN(C(=O)NCc1cc2cc(Cl)ccc2[nH]1)[C@@H]1CCCN(C(=O)c2cc(F)n(C)n2)C1 [Compound 115, (R)-3-((5-chloro-1H-indol-2-yl)methyl)-1-(1-(5-fluoro-1-methyl-1H-pyrazole-3-carbonyl)piperidin-3-yl)-1-methylurea] | 688 nM | 
6 | CC(=O)N1C[C@H](N(C)C(=O)NCc2cc3cc(Cl)ccc3[nH]2)CC[C@@H]1C (single isomer, unassigned) [Compound 192, 1-((3R,6S or 3S,6R)-1-acetyl-6-methylpiperidin-3-yl)-3-((5-chloro-1H-indol-2-yl)methyl)-1-methylurea] | 558 nM | 
7 | CN(C(=O)NCc1cc2cc(Cl)ccc2[nH]1)[C@@H]1CCCN(C(=O)C2(C)CCC2)C1 [Compound 118, (R)-3-((5-chloro-1H-indol-2-yl)methyl)-1-methyl-1-(1-(1-methylcyclobutane-1-carbonyl)piperidin-3-yl)urea] | 1620 nM | 
8 | CN(C(=O)NCc1cc2cc(Cl)ccc2[nH]1)[C@@H]1CCCN(C(=O)NCC(F)(F)F)C1 [Compound 210, (R)-3-(3-((5-chloro-1H-indol-2-yl)methyl)-1-methylureido)-N-(2,2,2-trifluoroethyl)piperidine-1-carboxamide] | 892 nM | 
9 | CC(=O)N1CCC[C@@H](N(C)C(=O)NCc2cc3cc(C(F)(F)F)ccc3[nH]2)C1 [Compound 212, (R)-1-(1-acetylpiperidin-3-yl)-1-methyl-3-((5-(trifluoromethyl)-1H-indol-2-yl)methyl)urea] | 259 nM | 
10 | CN(C(=O)NCc1cc2cc(Cl)ccc2[nH]1)[C@@H]1CCCN(C(=O)Cc2cnoc2)C1 [Compound 246, (R)-3-((5-chloro-1H-indol-2-yl)methyl)-1-(1-(2-(isoxazol-4-yl)acetyl)piperidin-3-yl)-1-methylurea] | 1160 nM | 
11 | CN(C(=O)NCc1cc2cc(Cl)ccc2[nH]1)[C@@H]1CCCN(C(=O)c2nn(C)cc2F)C1 [Compound 113, (R)-3-((5-chloro-1H-indol-2-yl)methyl)-1-(1-(4-fluoro-1-methyl-1H-pyrazole-3-carbonyl)piperidin-3-yl)-1-methylurea] | 494 nM | 
12 | CN(C(=O)NCc1cc2cc(Cl)ccc2[nH]1)[C@@H]1CCCN(C(=O)Cc2cnco2)C1 [Compound 205, (R)-3-((5-chloro-1H-indol-2-yl)methyl)-1-methyl-1-(1-(2-(oxazol-5-yl)acetyl)piperidin-3-yl)urea] | 444 nM | 
13 | CN(C(=O)NCc1cc2cc(Cl)ccc2[nH]1)[C@@H]1CCCN(C(=O)N2CC(F)(F)C2)C1 [Compound 216, (R)-3-((5-chloro-1H-indol-2-yl)methyl)-1-(1-(3,3-difluoroazetidine-1-carbonyl)piperidin-3-yl)-1-methylurea] | 807 nM | 
14 | CN(C(=O)NCc1cc2cc(Cl)ccc2[nH]1)[C@@H]1CCCN(C(=O)C2CCOC2)C1 (stereo partly drawn) [Compound 112, 3-((5-chloro-1H-indol-2-yl)methyl)-1-methyl-1-((3R)-1-(tetrahydrofuran-3-carbonyl)piperidin-3-yl)urea] | 367 nM | 
15 | CC(C)NC(=O)N1CCC[C@@H](N(C)C(=O)NCc2cc3cc(Cl)ccc3[nH]2)C1 [Compound 213, (R)-3-(3-((5-chloro-1H-indol-2-yl)methyl)-1-methylureido)-N-isopropylpiperidine-1-carboxamide] | 804 nM | 
16 | CC(=O)N1CCC[C@@H](N(C)C(=O)NCCc2cc(-c3cc4ccccc4[nH]3)c(Cl)cc2Cl)C1 [Compound 207, (R)-1-(1-acetylpiperidin-3-yl)-3-(2,4-dichloro-5-(1H-indol-2-yl)phenethyl)-1-methylurea] | 715 nM | 
17 | CN(C(=O)NCc1cc2cc(Cl)ccc2[nH]1)[C@@H]1CCCN(C(=O)C2CCO2)C1 (stereo partly drawn) [Compound 116, 3-((5-chloro-1H-indol-2-yl)methyl)-1-methyl-1-((3R)-1-(oxetane-2-carbonyl)piperidin-3-yl)urea] | 515 nM | 
18 | CN(C(=O)NCc1cc2cc(Cl)ccc2[nH]1)[C@@H]1CCCN(C(=O)c2cc(F)ccn2)C1 [Compound 111, (R)-3-((5-chloro-1H-indol-2-yl)methyl)-1-(1-(4-fluoropicolinoyl)piperidin-3-yl)-1-methylurea] | 1320 nM | 
19 | CN(C(=O)NCc1cc2cc(Cl)ccc2[nH]1)[C@@H]1CCCN(C(=O)NC2CCC2)C1 [Compound 211, (R)-3-(3-((5-chloro-1H-indol-2-yl)methyl)-1-methylureido)-N-cyclobutylpiperidine-1-carboxamide] | 1360 nM | 
20 | CN(C(=O)NCc1cc2cc(Cl)ccc2[nH]1)[C@@H]1CCCN(C(=O)c2ccc(F)cn2)C1 [Compound 114, (R)-3-((5-chloro-1H-indol-2-yl)methyl)-1-(1-(5-fluoropicolinoyl)piperidin-3-yl)-1-methylurea] | 847 nM | 
